Measured values from patent publication EP0726760B1, “SELF-EMULSIBLE FORMULATION FORMING AN OIL-IN-WATER EMULSION” (YISSUM RESEARCH DEVELOPMENT COMPANY OF THE HEBREW …, priority 1993, dated 1995).
Like-named read-outs stand apart in the source and are kept apart here.

Test: Acute toxicity after intraperitoneal injection, 30 days
Design: species or system souris BALB/c
Details: mouse, in vivo, ip, printed 1:10 (0.5), i.p., read-out: % de survivants après 30 jours
Experimental: La toxicité aiguë des formulations décrites dans les exemples II - IV, a été examinée sur des souris BALB/c pendant 30 jours. 0.5 ml de chacun des SEOF dilué au 10ème (plus que 300 fois constitue un surdosage) et au 100ème (plus que 30 fois constitue un surdosage) ont été injectés intrapéritonalement au groupe de 4-6 souris. L'état de l'animal a été surveillé pendant plusieurs heures après le processus et ensuite chaque jour, pandant un mois.

With OCc1ccccc1 [BA, alcool benzylique] as the compound, how does the survival at 720 h (BA 1.5 % in water for injection) read?
Its survival at 720 h is 100%.

What about the survival at 720 h (BA 3 % in water for injection) of the same compound?
Its survival at 720 h is 15%.
